Data published in publication PMC9675574 (JCI Insight, 2022).
Where two headings read alike, the source gives them in different places.

Experiments:
[1] = target: mouse trypsin isoform T7 (cationic trypsin) (Mus musculus, UniProt Q9CPN9); assay type: biochemical; conditions: GPR-pNA, 24°C
Description: (§1) Recombinant human and mouse trypsinogens were expressed in Escherichia coli BL21(DE3) (Invitrogen), refolded in vitro, and purified by ecotin affinity chromatography (Pharmacia FPLC), according to published protocols ([60], [63], [64]). Sulfated human trypsinogens were purified from archived samples of human pancreatic juice, as described previously, with minor modifications ([65], [66]). Briefly, 50 mg freeze-dried pancreatic juice was dissolved in 2 mL 10 mM HCl, clarified by centrifugation (21,000g, 5 minutes, 4°C), and loaded onto a MonoQ 5/50 GL column equilibrated with 20 mM Tris-HCl (pH 8.0). Proteins were eluted with a 0–0.5 M NaCl gradient at 1 mL/min flow rate for 30 minutes. The fractions containing the cationic and anionic trypsinogens were further purified with ecotin affinity chromatography. The concentration of trypsinogen preparations was estimated from their UV absorbance at 280 nm using the extinction coefficients reported previously for mouse trypsinogens ([64]) and 37,525, 38,890, and 41,535/M/cm for human cationic trypsinogen (PRSS1), anionic trypsinogen (PRSS2), and mesotrypsinogen (PRSS3), respectively. To activate trypsinogen to trypsin, approximately 1 μM solution was incubated at 37°C with 28.2 ng/mL human enterokinase (final concentration) in 0.1 M Tris-HCl (pH 8.0), 10 mM CaCl2, and 0.05% Tween 20 for 1 hour. The activation reaction was followed by measuring trypsin activity: 2 μL trypsin was diluted in 48 μL assay buffer [0.1 M Tris-HCl (pH 8.0), 1 mM CaCl2, and 0.05% Tween 20], and 150 μL of 200 μM GPR-pNA trypsin substrate (in assay buffer) was added. Substrate cleavage resulting in the release of the yellow p-nitroaniline was monitored for 1 minute in a Spectramax Plus 384 microplate reader at 405 nm.
(§2) Michaelis-Menten kinetic parameters of trypsin isoforms were determined with the chromogenic substrate GPR-pNA at 24°C. The trypsin concentration was 1 nM and the substrate concentration was varied typically between 1.56 and 200 μM in a final volume of 200 μL assay buffer. The substrate concentration range was 3.1–400 μM for mouse trypsin isoform T7 and 0.4–50 μM for mouse trypsin isoform T20. Km and kcat values were calculated from hyperbolic fits to plots of reaction velocity versus substrate concentration.
(§3) Michaelis-Menten kinetic parameters were then measured after adding 100 μL trypsin substrate, as described above. […] To determine the Ki, the Km values were plotted as a function of the inhibitor concentration, and the Ki was calculated by dividing the y axis intercept with the slope of the linear fit. This value corresponds to the negative of the x axis intercept. Alternatively, the substrate saturation curves obtained in the absence and presence of the increasing inhibitor concentrations were globally fitted to the competitive inhibition equation y = vmax × (x/[KmObs+ x]), where y is the reaction velocity, vmax is the maximal velocity, x is the substrate concentration, and KmObs = Km × (1 + [I]/Ki), where [I] is the inhibitor concentration. Experiments were performed 3 times and each experiment was analyzed separately. […] Kinetic analysis was performed with the Prism 8 program (GraphPad).

[2] = target: T1, bovine trypsin (Bos taurus, UniProt P00760); test: Competitive inhibition kinetics of trypsin, GPR-pNA substrate; assay type: biochemical; conditions: 24°C
T1 construct: purchased Worthington Biochemical Corporation LS003707
T1 sequence (P00760 24-246): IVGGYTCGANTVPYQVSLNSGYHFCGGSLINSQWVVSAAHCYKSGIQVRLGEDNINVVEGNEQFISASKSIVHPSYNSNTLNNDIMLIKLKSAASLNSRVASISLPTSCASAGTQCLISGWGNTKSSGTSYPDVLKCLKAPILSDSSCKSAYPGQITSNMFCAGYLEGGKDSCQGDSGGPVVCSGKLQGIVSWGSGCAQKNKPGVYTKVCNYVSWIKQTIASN
Description: Bovine trypsin (catalog number LS003707) was purchased from Worthington Biochemical Corporation and was active-site titrated with p-nitrophenyl p’-guanidino-benzoate (catalog number N-8010, MilliporeSigma) ([59]). Ecotin was produced and purified as reported previously ([60]). The concentration of ecotin was determined by titration against active-site titrated bovine trypsin. Recombinant human pro-enterokinase (catalog number 1585-SE-010) was purchased from R&D Systems and was activated with human cationic trypsin. The trypsin substrate GPR-pNA (catalog number 4000768.0100) was purchased from Bachem Americas. […] Michaelis-Menten kinetic parameters of trypsin isoforms were determined with the chromogenic substrate GPR-pNA at 24°C. […] Km and kcat values were calculated from hyperbolic fits to plots of reaction velocity versus substrate concentration. […] To determine the Ki, the Km values were plotted as a function of the inhibitor concentration, and the Ki was calculated by dividing the y axis intercept with the slope of the linear fit. This value corresponds to the negative of the x axis intercept. […] Experiments were performed 3 times and each experiment was analyzed separately. […] Kinetic analysis was performed with the Prism 8 program (GraphPad).

[3] = target: T2, human trypsin isoform PRSS3 (mesotrypsin) (Homo sapiens, UniProt P35030); test: as above; assay type: biochemical; conditions: for kcat: GPR-pNA, 24°C; for Ki: mean ± SD, n = 3
T2 construct: made in house; host or cells: Escherichia coli BL21(DE3)
T2 sequence (P35030 81-304 limits assumed): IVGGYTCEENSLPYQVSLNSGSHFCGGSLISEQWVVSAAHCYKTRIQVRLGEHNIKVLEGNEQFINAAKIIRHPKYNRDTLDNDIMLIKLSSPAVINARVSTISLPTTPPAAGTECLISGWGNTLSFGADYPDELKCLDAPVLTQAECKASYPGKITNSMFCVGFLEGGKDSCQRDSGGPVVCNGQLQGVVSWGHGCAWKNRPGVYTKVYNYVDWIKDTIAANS
Description: as §1, §2, §3

[4] = target: T3, mouse trypsin isoform T20 (anionic trypsin) (Mus musculus, UniProt P07146); test: as above; assay type: biochemical; conditions: for kcat / Km: GPR-pNA, 24°C; for Ki: mean ± SD, n = 3
T3 construct: made in house; host or cells: Escherichia coli BL21(DE3)
T3 sequence (P07146 24-246): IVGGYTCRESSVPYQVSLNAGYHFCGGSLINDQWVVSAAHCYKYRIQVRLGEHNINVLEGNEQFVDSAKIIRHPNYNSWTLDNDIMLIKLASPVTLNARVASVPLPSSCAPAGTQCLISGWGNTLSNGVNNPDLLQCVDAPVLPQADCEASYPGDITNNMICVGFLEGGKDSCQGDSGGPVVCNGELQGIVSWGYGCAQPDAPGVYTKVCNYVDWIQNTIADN
Description: as §1, §2, §3

[5] = human volunteers, cited from earlier work

Sequence of mouse trypsin isoform T7 (cationic trypsin) (Q9CPN9 entry or part of it): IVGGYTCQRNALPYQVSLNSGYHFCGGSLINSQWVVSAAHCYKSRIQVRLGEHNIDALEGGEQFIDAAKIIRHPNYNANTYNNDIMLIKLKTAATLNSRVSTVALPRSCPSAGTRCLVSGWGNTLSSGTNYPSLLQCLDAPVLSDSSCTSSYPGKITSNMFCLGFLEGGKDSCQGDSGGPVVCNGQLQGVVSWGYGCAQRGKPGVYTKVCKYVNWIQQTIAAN

In the case of `N=C(N)c1ccccc1` [benzamidine], the kcat ([1]; 12.5 μM benzamidine) is reported as 125.4 ± 2.7 per second, the kcat ([1]; 25 μM benzamidine) is reported as 125.5 ± 3.5 per second and the kcat ([1]; 37.5 μM benzamidine) is reported as 135 ± 3.9 per second. For the same compound, the kcat ([1]; 50 μM benzamidine) was 127.9 ± 7.5 per second, the kcat ([2]; 25 μM benzamidine) was 109 ± 9.5 per second and the kcat ([2]; 50 μM benzamidine) was 115.8 ± .9 per second. It also gave a kcat ([3]; 25 μM benzamidine) of 211.9 ± 8.6 per second, a kcat ([3]; 50 μM benzamidine) of 214.2 ± 4.7 per second and a kcat ([3]; 75 μM benzamidine) of 201.3 ± 8 per second. The kcat ([3]; 100 μM benzamidine) was 205.7 ± 6.3 per second, the Ki ([3]; Ki benzamidine, Global fit) was 13.3 ± 0.8 µM and the Ki ([3]; Ki benzamidine, Individual fit) was 15.5 ± 2.3 µM. It also gave a kcat ([4]; 12.5 μM benzamidine) of 65 ± 1 per second, a kcat ([4]; 25 μM benzamidine) of 62.1 ± 1.8 per second and a kcat ([4]; 37.5 μM benzamidine) of 64.7 ± 2.1 per second. For the same compound, the kcat ([4]; 50 μM benzamidine) was 65.6 ± 2.1 per second, the Ki ([4]; Ki benzamidine, Global fit) was 7.6 ± 0.5 µM and the Ki ([4]; Ki benzamidine, Individual fit) was 6.9 ± 1.1 µM.

Compound `[H]/N=C(/N)c1ccc(NCc2nc3cc(C(=O)N(CCC(=O)O)c4ccccn4)ccc3n2C)cc1` [dabigatran] has a kcat ([1]; 100 nM dabigatran) of 47.5 ± 2 per second, a kcat ([1]; 150 nM dabigatran) of 50.1 ± 1.5 per second and a kcat ([1]; 200 nM dabigatran) of 49.3 ± 1.7 per second. For the same compound, the Km ([2]; 50 nM dabigatran) was 49.5 ± 3.3 µM, the kcat ([2]; 50 nM dabigatran) was 127.7 ± 0.8 per second and the Km ([2]; 100 nM dabigatran) was 71.6 ± 3.5 µM. For the same compound, the kcat ([2]; 100 nM dabigatran) was 126.6 ± 3.5 per second, the Km ([2]; 150 nM dabigatran) was 91.9 ± 4.9 µM and the kcat ([2]; 150 nM dabigatran) was 123.8 ± 2.9 per second. The Km ([2]; 200 nM dabigatran) was 126 ± 7 µM, the kcat ([2]; 200 nM dabigatran) was 130.1 ± 1.4 per second and the kcat ([3]; 50 nM dabigatran) was 214.6 ± 4.9 per second. The kcat ([3]; 100 nM dabigatran) was 215.5 ± 4.6 per second, the kcat ([3]; 150 nM dabigatran) was 217.5 ± 10.8 per second and the kcat ([3]; 200 nM dabigatran) was 220.5 ± 4.1 per second. It also gave a Ki ([3]; Ki dabigatran, Global fit) of 0.0516 ± 0.0021 µM, a Ki ([3]; Ki dabigatran, Individual fit) of 0.0351 ± 0.0024 µM and a Km ([4]; 50 nM dabigatran) of 9.5 ± 1.3 µM. For the same compound, the kcat ([4]; 50 nM dabigatran) was 52 ± 4 per second, the Km ([4]; 100 nM dabigatran) was 19.5 ± 0.5 µM and the kcat ([4]; 100 nM dabigatran) was 51.1 ± 1.7 per second. For the same compound, the Km ([4]; 150 nM dabigatran) was 22.5 ± 2.5 µM, the kcat ([4]; 150 nM dabigatran) was 48.7 ± 3.3 per second and the Km ([4]; 200 nM dabigatran) was 28.5 ± 2.2 µM. The kcat ([4]; 200 nM dabigatran) was 50 ± 6.3 per second, the Ki ([4]; Ki dabigatran, Global fit) was 0.0226 ± 0.0007 µM and the “steady-state plasma levels of dabigatran” value ([5]; 100 mg dabigatran etexilate 3 times daily) was “around 50 ng/mL”. For the same compound, the “steady-state plasma levels of dabigatran” value ([5]; 200 mg dabigatran etexilate 3 times daily) was about 100 ng/mL.
